Assay results from US8609608B2, “Antimicrobial peptides” (C3 Jian, Inc., priority 2007, dated 2013).
Where no end group is shown, it is not given here.

Key:
[1] = system: clinical isolates of S. mutans; type: cell-based, Streptococcus mutans; conditions: clinical isolates of
How it was run: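 Bacteria grown anaerobically (80% N2, 10% CO2, 10% H2) to 1×10^8 CFU/ml were diluted to 1×10^5 CFU/ml in Todd-Hewitt or Veillonella medium. Peptide was added in 1:2 dilutions (500–1.95 or 512–2 μg/ml) and plates were incubated 16–20 h at 37° C. MIC was the last clear well by eye, in triplicate.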

[2] = system: S. mutans UA159; test: Killing kinetics (time-kill assay); type: cell-based, Streptococcus mutans; conditions: peptide 25 μg/ml; for TC, time required to kill 3 log10 of recoverable CFU/ml: UA159
Protocol: The determination of killing kinetics for fusion and parental peptides was conducted essentially as described previously (Eckert et al. (2006) Antimicrob. Agents Chemother. 50: 1480-1488). Briefly, medium-diluted overnight UA159 cultures (0.5×10^6 to 1×10^6 CFU/ml) were challenged with peptide at a concentration of 25 μg/ml, and at the indicated time intervals (“0 min” indicates untreated samples), a 10-μL aliquot was removed and the surviving CFU were rescued by dilution (1:50) into growth medium and then spread on TH agar plates for quantitation. […] Kinetics were determined by recording the average number of surviving CFU/ml versus incubation time in the presence of peptide (all assays were independently repeated three to five times). For Table 8, time to bactericidal killing (TC) values were defined as the time required for the level of surviving CFU/ml from peptide-treated cultures to fall 3 log10 below the levels of recovered S. mutans CFU/ml from untreated samples.

[3] = system: S. gordonii Challis DL1; type: cell-based, Streptococcus gordonii
Protocol: (§1) S. mutans clinical isolates UA140 (32), UA159 (1), T8 (33), ATCC 25175, GS5 (Kuramitsu and Ingersoll (1977) Infect Immun., 17: 330-337), and all gram-positive strains listed below (see Table 9) were grown under anaerobic conditions in brain heart infusion or Todd-Hewitt (TH) broth (Difco) overnight at 37° C. prior to use (Eckert et al. (2006) Antimicrob. Agents Chemother. 50: 3651-3657). Veillonella atypica PK1910 was grown in Veillonella medium (Egland et al. (2004) Proc. Natl. Acad. Sci., USA, 101: 16917-16922). All strains were grown in an anaerobic atmosphere of 80% N2, 10% CO2, and 10% H2.
(§2) Antibacterial growth inhibition assays were performed using sterile 96-well plates in a final volume of 100 μl, TH or Veillonella medium as described previously (Qi et al. (2005) FEMS Microbial Lett. 251: 321-326). Briefly, bacterial cells were grown overnight to an optical density at 600 nm of 0.75 to 0.8 (corresponding to 1×10^8 CFU/ml) and then diluted to 1×10^5 CFU/ml in broth and aliquoted onto plates. An appropriate volume of peptide stock solution (5 to 20 mg/ml, in water or methanol, depending on solubility) was then added to the first column of the plate to give 500 μg/ml or 512 μg/ml, followed by serial 1:2 dilutions across the plate to give wells containing peptides ranging from 500 to 1.95 μg/ml or 512 to 2 μg/ml. Methanol alone was also added to control for the effects of the solvent. The plates were then incubated at 37° C. under anaerobic conditions for 16 to 20 h without shaking, and the MIC was determined as the concentration of peptide present in the last clear well after visual inspection. Up to 5% (vol/vol) methanol was found not to be antimicrobial (data not shown). MICs were determined in triplicate for all bacteria.

[4] = system: S. mitis ATCC 903; type: cell-based, Streptococcus mitis
Protocol: as §1, §2

[5] = system: L. casei ATCC 4646; type: cell-based, Lactobacillus casei
Protocol: as §1, §2

[6] = system: S. sanguinis NY101; type: cell-based, Streptococcus sanguinis
Protocol: as §1, §2

[7] = system: V. atypica PK1910; type: cell-based, Veillonella atypica
Protocol: as §1, §2

RWRWRWFGGGRWRWRWF-NH2 [FRW-11, RWRWRWF-GGG-RWRWRWF*]
MIC (fusion library peptides) [1]: 16 µg/mL
TC, time required to kill 3 log10 of recoverable CFU/ml [2]: 90 min

RWRWRWFASASARWRWRWF-NH2 [FRW-9, RWRWRWF-ASASA-RWRWRWF*]
MIC (fusion library peptides) [1]: 16 µg/mL
TC, time required to kill 3 log10 of recoverable CFU/ml [2]: 45 min

RRRWWWFGGGRRRWWWF-NH2 [FRW-5, RRRWWWF-GGG-RRRWWWF*]
MIC (fusion library peptides) [1]: 16 µg/mL
TC, time required to kill 3 log10 of recoverable CFU/ml [2]: 270 min

RWRWRWFRWRWRWF-NH2 [FRW-8, RWRWRWFRWRWRWF*]
MIC (fusion library peptides) [1]: 16 µg/mL
TC, time required to kill 3 log10 of recoverable CFU/ml [2]: 50 min

RRRWWWF-NH2 [Peptide 2C-3, RRRWWWF*]
MIC S. gordonii Challis DL1 [3]: 32 µg/mL
MIC S. mitis ATCC 903 [4]: 32 µg/mL
MIC [1]: 4 to 8 µg/mL
MIC L. casei ATCC 4646 [5]: 16 µg/mL
MIC S. sanguinis NY101 [6]: 16 µg/mL
MIC V. atypica PK1910 [7]: 64 µg/mL
TC, time required to kill 3 log10 of recoverable CFU/ml [2]: 220 min

RWRWRWFPSGSPRWRWRWF-NH2 [FRW-10, RWRWRWF-PSGSP-RWRWRWF*]
MIC (fusion library peptides) [1]: 32 µg/mL
TC, time required to kill 3 log10 of recoverable CFU/ml [2]: 270 min

RWRRLLKKLHHLLHGGGIKQLLHFFQRF-NH2 [FBα-21, RWRRLLKKLHHLLH-GGG-IKQLLHFFQRF*]
MIC (fusion library peptides) [1]: 16 µg/mL
fewer CFU/ml recovered from fusion peptide-treated cultures than from parental peptide-treated samples ([2]; after 30 min): more than 2 log10

RRRWWWFASASARRRWWWF-NH2 [FRW-3, RRRWWWF-ASASA-RRRWWWF*]
MIC (fusion library peptides) [1]: 32 µg/mL
TC, time required to kill 3 log10 of recoverable CFU/ml [2]: 480 min

RRRWWWFPSGSPRRRWWWF-NH2 [FRW-4, RRRWWWF-PSGSP-RRRWWWF*]
MIC (fusion library peptides) [1]: 32 µg/mL
TC, time required to kill 3 log10 of recoverable CFU/ml [2]: 420 min
